Laboratory results taken from US10131652B2, “Pyrimidinyloxy benzene derivatives as herbicides” (E. I. DU PONT DE NEMOURS AND COMPANY, priority 2014, dated 2018).

Experiments:
Assay type in all cases: in vivo
[1] = system: barnyardgrass (Echinochloa crus-galli); assay: Test B pre-/postemergence plant response
Method in brief: (§1)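 Seeds in loam–sand blend given preemergence soil spray; separately, plants at one- to two-leaf stage (2–10 cm) sprayed postemergence, compounds in non-phytotoxic solvent with surfactant. Injury rated visually versus untreated controls after ~10 days in greenhouse, 0 (no effect) to 100 (complete control).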

corn (Zea mays) [2] = assay: Test B pre-/postemergence plant response
Method in brief: as §1

[3] = system: giant foxtail (Setaria faberii); assay: Test B pre-/postemergence plant response
Method in brief: as §1

[4] = system: pigweed (Amaranthus retroflexus); assay: Test B pre-/postemergence plant response
Method in brief: as §1

[5] = system: wheat (Triticum aestivum); assay: Test B pre-/postemergence plant response
Method in brief: as §1

[6] = system: Italian ryegrass (Lolium multiflorum); assay: Test D pre-/postemergence plant response; settings: Postemergence; for Plant response rating (scale 0 to 100), Ryegrass, Italian: 16 g ai/ha; for Plant response rating, Ryegrass, Italian: 125 g ai/ha
Method in brief: (§2)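 Sown seed (loam/sand soil) treated preemergence; emerged plants, 1- to 4-leaf stage and 2 to 18 cm, treated postemergence in peat/vermiculite medium. Greenhouse incubation 13–15 d. Endpoint: visual 0–100 rating versus untreated.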

corn (Zea mays) [7] = assay: Test D pre-/postemergence plant response; settings: Postemergence; for Plant response rating (scale 0 to 100), Corn: 16 g ai/ha; for Corn plant response rating: 31 g ai/ha, scale 0 to 100 (0 no effect, 100 complete control); for Plant response rating, Corn: scale 0 to 100, 0 no effect, 100 complete control
Method in brief: as §2

[8] = system: galium (catchweed bedstraw, Galium aparine); assay: Test D pre-/postemergence plant response; settings: Postemergence; for Plant response rating (scale 0 to 100), Galium: 16 g ai/ha; for Galium plant response rating: 31 g ai/ha, scale 0 to 100 (0 no effect, 100 complete control); for Plant response rating, Galium: scale 0 to 100, 0 no effect, 100 complete control
Method in brief: as §2

[9] = system: lambsquarters (Chenopodium album); assay: Test D pre-/postemergence plant response; settings: Postemergence; for Plant response rating (scale 0 to 100), Lambsquarters: 16 g ai/ha; for Plant response rating, Lambsquarters: 125 g ai/ha
Method in brief: as §2

[10] = system: large (Lg) crabgrass (Digitaria sanguinalis); assay: Test D pre-/postemergence plant response; settings: Postemergence; for Plant response rating (scale 0 to 100), Crabgrass, Large: 16 g ai/ha; for Crabgrass, Large plant response rating: 31 g ai/ha, scale 0 to 100 (0 no effect, 100 complete control); for Plant response rating, Crabgrass, Large: scale 0 to 100, 0 no effect, 100 complete control
Method in brief: as §2

[11] = system: morningglory (Ipomoea coccinea); assay: Test D pre-/postemergence plant response; settings: Postemergence; for Plant response rating (scale 0 to 100), Morningglory: 16 g ai/ha; for Plant response rating, Morningglory: 125 g ai/ha
Method in brief: as §2

[12] = system: ragweed (common ragweed, Ambrosia elatior); assay: Test D pre-/postemergence plant response; settings: Postemergence; for Plant response rating (scale 0 to 100), Ragweed: 16 g ai/ha; for Plant response rating, Ragweed: 125 g ai/ha
Method in brief: as §2

soybean (Glycine max) = assay: Test D pre-/postemergence plant response; settings: Postemergence; for Plant response rating (scale 0 to 100), Soybean: 16 g ai/ha; for Plant response rating, Soybean: 125 g ai/ha
Method in brief: as §2

[13] = system: waterhemp (common waterhemp, Amaranthus rudis); assay: Test D pre-/postemergence plant response; settings: Postemergence; for Plant response rating (scale 0 to 100), Waterhemp: 16 g ai/ha; for Plant response rating, Waterhemp: 125 g ai/ha
Method in brief: as §2

[14] = system: winter wheat (Triticum aestivum); assay: Test D pre-/postemergence plant response; settings: Postemergence; for Plant response rating (scale 0 to 100), Wheat: 16 g ai/ha; for Plant response rating, Wheat: 125 g ai/ha
Method in brief: as §2

[15] = system: yellow nutsedge (Cyperus esculentus); assay: Test D pre-/postemergence plant response; settings: Postemergence; for Plant response rating (scale 0 to 100), Nutsedge, Yellow: 16 g ai/ha; for Plant response rating, Nutsedge, Yellow: 125 g ai/ha
Method in brief: as §2

[16] = Postemergence, 1000 g ai/ha, 0 to 100 scale (0 no effect, 100 complete control)
[17] = Preemergence, 1000 g ai/ha, 0 to 100 scale (0 no effect, 100 complete control)
[18] = 31 g ai/ha, scale 0 to 100 (0 no effect, 100 complete control)
[19] = 62 g ai/ha, scale 0 to 100, 0 no effect, 100 complete control
[20] = scale 0 to 100, 0 no effect, 100 complete control
[21] = 31 g ai/ha, Preemergence, 0 to 100 scale where 0 is no effect and 100 is complete control
[22] = 125 g ai/ha, postemergence, 0 to 100 scale, 0 no effect, 100 complete control
[23] = Postemergence, 31 g ai/ha, 0 to 100 scale (0 no effect, 100 complete control)
[24] = Preemergence, 125 g ai/ha, 0 to 100 scale (0 no effect, 100 complete control)

FCc1cc(-c2c(Br)cccc2Oc2ncc(Cl)cn2)no1 [Compound 191]
Plant response rating, Barnyardgrass [1, 16]: 100
Plant response rating, Barnyardgrass [1, 17]: 100
Plant response rating, Corn (corn (Zea mays) [2]; [16]): 60
Plant response rating, Foxtail, Giant [3, 16]: 100
Plant response rating, Foxtail, Giant [3, 17]: 100
Plant response rating, Pigweed [4, 16]: 100
Plant response rating, Pigweed [4, 17]: 100
Plant response rating, Wheat [5, 16]: 30
Plant response rating (scale 0 to 100), Ryegrass, Italian [6]: 0
Ryegrass, Italian plant response rating [6, 18]: 0
Ryegrass, Italian plant response rating [6, 19]: 0
Plant response rating, Ryegrass, Italian [6, 20]: 5
Plant response rating (scale 0 to 100), Corn (corn (Zea mays) [7]): 5
Corn plant response rating (corn (Zea mays) [7]): 5
Plant response rating, Corn (corn (Zea mays) [7]; 62 g ai/ha): 10
Plant response rating, Corn (corn (Zea mays) [7]; 125 g ai/ha): 10
Plant response rating (scale 0 to 100), Galium [8]: 40
Galium plant response rating [8]: 70
Plant response rating, Galium ([8]; 62 g ai/ha): 85
Plant response rating, Galium ([8]; 125 g ai/ha): 85
Plant response rating (scale 0 to 100), Lambsquarters [9]: 50
Lambsquarters plant response rating [9, 18]: 70
Lambsquarters plant response rating [9, 19]: 70
Plant response rating, Lambsquarters [9, 20]: 85
Plant response rating (scale 0 to 100), Crabgrass, Large [10]: 5
Crabgrass, Large plant response rating [10]: 10
Plant response rating, Crabgrass, Large ([10]; 62 g ai/ha): 10
Plant response rating, Crabgrass, Large ([10]; 125 g ai/ha): 20
Plant response rating (scale 0 to 100), Morningglory [11]: 65
Morningglory plant response rating [11, 18]: 65
Morningglory plant response rating [11, 19]: 60
Plant response rating, Morningglory [11, 20]: 85
Plant response rating (scale 0 to 100), Ragweed [12]: 30
Ragweed plant response rating [12, 18]: 40
Ragweed plant response rating [12, 19]: 60
Plant response rating, Ragweed [12, 20]: 65
Plant response rating (scale 0 to 100), Soybean (soybean (Glycine max)): 45
Soybean plant response rating (soybean (Glycine max); [18]): 65
Soybean plant response rating (soybean (Glycine max); [19]): 75
Plant response rating, Soybean (soybean (Glycine max); [20]): 95
Plant response rating (scale 0 to 100), Waterhemp [13]: 25
Waterhemp plant response rating [13, 18]: 60
Waterhemp plant response rating [13, 19]: 70
Plant response rating, Waterhemp [13, 20]: 65
Plant response rating (scale 0 to 100), Wheat [14]: 0
Wheat plant response rating [14, 18]: 0
Wheat plant response rating [14, 19]: 0
Plant response rating, Wheat [14, 20]: 0
Plant response rating (scale 0 to 100), Nutsedge, Yellow [15]: 0
Nutsedge, Yellow plant response rating [15, 18]: 5
Nutsedge, Yellow plant response rating [15, 19]: 5
Plant response rating, Nutsedge, Yellow [15, 20]: 10

Clc1cnc(Oc2ccccc2-c2cc(Cl)sn2)nc1 [Compound 192]
Plant response rating, Barnyardgrass [1, 16]: 100
Plant response rating, Barnyardgrass [1, 17]: 100
Plant response rating, Corn (corn (Zea mays) [2]; [16]): 30
Plant response rating, Foxtail, Giant [3, 16]: 90
Plant response rating, Foxtail, Giant [3, 17]: 100
Plant response rating, Pigweed [4, 16]: 100
Plant response rating, Pigweed [4, 17]: 100
Plant response rating, Wheat [5, 16]: 30
Plant response rating (scale 0 to 100), Ryegrass, Italian [6]: 0
Ryegrass, Italian plant response rating [6, 18]: 0
Ryegrass, Italian plant response rating [6, 19]: 0
Plant response rating, Ryegrass, Italian [6, 20]: 0
Plant response rating (scale 0 to 100), Corn (corn (Zea mays) [7]): 0
Corn plant response rating (corn (Zea mays) [7]): 0
Plant response rating, Corn (corn (Zea mays) [7]; 62 g ai/ha): 5
Plant response rating, Corn (corn (Zea mays) [7]; 125 g ai/ha): 10
Plant response rating (scale 0 to 100), Galium [8]: 35
Galium plant response rating [8]: 50
Plant response rating, Galium ([8]; 62 g ai/ha): 50
Plant response rating, Galium ([8]; 125 g ai/ha): 50
Plant response rating (scale 0 to 100), Lambsquarters [9]: 35
Lambsquarters plant response rating [9, 18]: 50
Lambsquarters plant response rating [9, 19]: 40
Plant response rating, Lambsquarters [9, 20]: 75
Plant response rating (scale 0 to 100), Crabgrass, Large [10]: 5
Crabgrass, Large plant response rating [10]: 5
Plant response rating, Crabgrass, Large ([10]; 62 g ai/ha): 10
Plant response rating, Crabgrass, Large ([10]; 125 g ai/ha): 10
Plant response rating (scale 0 to 100), Morningglory [11]: 0
Morningglory plant response rating [11, 18]: 0
Morningglory plant response rating [11, 19]: 10
Plant response rating, Morningglory [11, 20]: 45
Plant response rating (scale 0 to 100), Ragweed [12]: 0
Ragweed plant response rating [12, 18]: 5
Ragweed plant response rating [12, 19]: 15
Plant response rating, Ragweed [12, 20]: 45
Plant response rating (scale 0 to 100), Soybean (soybean (Glycine max)): 10
Soybean plant response rating (soybean (Glycine max); [18]): 30
Soybean plant response rating (soybean (Glycine max); [19]): 55
Plant response rating, Soybean (soybean (Glycine max); [20]): 85
Plant response rating (scale 0 to 100), Waterhemp [13]: 20
Waterhemp plant response rating [13, 18]: 40
Waterhemp plant response rating [13, 19]: 55
Plant response rating, Waterhemp [13, 20]: 70
Plant response rating (scale 0 to 100), Wheat [14]: 0
Wheat plant response rating [14, 18]: 0
Wheat plant response rating [14, 19]: 5
Plant response rating, Wheat [14, 20]: 5
Plant response rating (scale 0 to 100), Nutsedge, Yellow [15]: 0
Nutsedge, Yellow plant response rating [15, 18]: 5
Nutsedge, Yellow plant response rating [15, 19]: 0
Plant response rating, Nutsedge, Yellow [15, 20]: 5

FC(Cl)(Cl)c1cc(-c2ccccc2Oc2ncc(Cl)cn2)no1 [Compound 198]
Plant response rating, Barnyardgrass [1, 21]: 10
Plant response rating, Barnyardgrass [1, 22]: 50
Plant response rating, Barnyardgrass [1, 23]: 10
Barnyardgrass plant response rating [1, 24]: 40
Plant response rating, Corn (corn (Zea mays) [2]; [22]): 20
Plant response rating, Corn (corn (Zea mays) [2]; [23]): 10
Plant response rating, Foxtail, Giant [3, 21]: 70
Plant response rating, Foxtail, Giant [3, 22]: 90
Plant response rating, Foxtail, Giant [3, 23]: 30
Foxtail, Giant plant response rating [3, 24]: 90
Plant response rating, Pigweed [4, 21]: 30
Plant response rating, Pigweed [4, 22]: 100
Plant response rating, Pigweed [4, 23]: 100
Pigweed plant response rating [4, 24]: 100
Plant response rating, Wheat [5, 22]: 10
Plant response rating, Wheat [5, 23]: 0
Plant response rating (scale 0 to 100), Ryegrass, Italian [6]: 0
Ryegrass, Italian plant response rating [6, 18]: 0
Ryegrass, Italian plant response rating [6, 19]: 10
Plant response rating, Ryegrass, Italian [6, 20]: 10
Plant response rating (scale 0 to 100), Corn (corn (Zea mays) [7]): 5
Corn plant response rating (corn (Zea mays) [7]): 10
Plant response rating, Corn (corn (Zea mays) [7]; 62 g ai/ha): 15
Plant response rating, Corn (corn (Zea mays) [7]; 125 g ai/ha): 15
Plant response rating (scale 0 to 100), Galium [8]: 70
Galium plant response rating [8]: 75
Plant response rating, Galium ([8]; 62 g ai/ha): 98
Plant response rating, Galium ([8]; 125 g ai/ha): 98
Plant response rating (scale 0 to 100), Lambsquarters [9]: 10
Lambsquarters plant response rating [9, 18]: 55
Lambsquarters plant response rating [9, 19]: 70
Plant response rating, Lambsquarters [9, 20]: 75
Plant response rating (scale 0 to 100), Crabgrass, Large [10]: 10
Crabgrass, Large plant response rating [10]: 15
Plant response rating, Crabgrass, Large ([10]; 62 g ai/ha): 20
Plant response rating, Crabgrass, Large ([10]; 125 g ai/ha): 30
Plant response rating (scale 0 to 100), Morningglory [11]: 55
Morningglory plant response rating [11, 18]: 55
Morningglory plant response rating [11, 19]: 80
Plant response rating, Morningglory [11, 20]: 85
Plant response rating (scale 0 to 100), Ragweed [12]: 30
Ragweed plant response rating [12, 18]: 55
Ragweed plant response rating [12, 19]: 55
Plant response rating, Ragweed [12, 20]: 60
Plant response rating (scale 0 to 100), Soybean (soybean (Glycine max)): 10
Soybean plant response rating (soybean (Glycine max); [18]): 25
Soybean plant response rating (soybean (Glycine max); [19]): 30
Plant response rating, Soybean (soybean (Glycine max); [20]): 60
Plant response rating (scale 0 to 100), Waterhemp [13]: 85
Waterhemp plant response rating [13, 18]: 85
Waterhemp plant response rating [13, 19]: 95
Plant response rating, Waterhemp [13, 20]: 98
Plant response rating (scale 0 to 100), Wheat [14]: 0
Wheat plant response rating [14, 18]: 0
Wheat plant response rating [14, 19]: 5
Plant response rating, Wheat [14, 20]: 5
Plant response rating (scale 0 to 100), Nutsedge, Yellow [15]: 5
Nutsedge, Yellow plant response rating [15, 18]: 5
Nutsedge, Yellow plant response rating [15, 19]: 15
Plant response rating, Nutsedge, Yellow [15, 20]: 10
